The values below come from patent US8962257B2, “Methods for diagnosing heart failure and other cardiac diseases” (The Trustees of the University of Pennsylvania, priority 2010, dated 2015).

In the test the test system is NRG-1β. Nature of the test: Serial plasma NRG-1β by indirect sandwich ELISA in Her-2+ breast cancer patients receiving doxorubicin and trastuzumab. The test is classed as in vivo, human. To be noted: with Doxorubicin exposure. The procedure: NRG-1β is measured from frozen, previously unthawed serum or plasma samples that had been stored at −80° C. until time of assay. An indirect sandwich enzyme-linked immunosorbent assay (ELISA) was used (NRG1-β1 Duoset ELISA development system from R&D Systems, Minneapolis, Minn.). Assay technology was adapted for human samples, and all measurements were performed at Vanderbilt University. […] Following incubation, a biotinylated goat anti-human NRG1-β1 detection antibody was added to each well, and a streptavidin-HRP system was used for detection. […] Extensive validation was performed and there was no cross-reactivity with NRG-1α isoform or epidermal growth factor.
Data were obtained at enrollment and every 3 months during anti-cancer therapy.
NRG-1β plasma level was measured serially every 3 months during chemotherapy treatment.
A general note: ELISA stands for enzyme-linked immunosorbent assay.

Each structure is given as a SMILES string.

For the compound `COc1cccc2c1C(=O)c1c(O)c3c(c(O)c1C2=O)C[C@@](O)(C(=O)CO)C[C@@H]3O[C@H]1C[C@H](N)[C@H](O)[C@H](C)O1` [Doxorubicin, doxorubicin], the “change in NRG-1β over time” value is “significant decrease”. Moreover, where the note is “listed as doxorubicin”, the “change in NRG-1β over time” value is listed as “significant decline”.
